Common to all, as to format: cell-based
Assay [1] relates to NCI-H460 cells (NCI-H460细胞). Briefly: SRB cytotoxicity assay, NCI-H460. Conditions: 72 h. For orientation: In SRB staining, fixed cells bind dye roughly in proportion to their protein.
Assay [2] deals with SF-268 nerve cancer cells (神经癌细胞SF-268). Briefly: SRB cytotoxicity assay, SF-268. As to conditions: SF-268, SRB, 72 h.
Assay [3] concerns HepG-2 liver cancer cells (肝癌细胞HepG-2). As to the kind of experiment: SRB cytotoxicity assay, HepG-2. Conditions: HepG-2, SRB, 72 h.
Assay [4] relates to MCF-7 breast cancer cells (乳腺癌细胞MCF-7). Briefly: SRB cytotoxicity assay, MCF-7. As to conditions: MCF-7, SRB, 72 h.

Structures are written as SMILES.

As to `Cc1cc(O)c2c3c1OC(C)(C)[C@@H](CCl)O[C@]31Oc3cccc(O)c3[C@@]2(O)[C@H]1C` [cytorhizin B], the 50% inhibitory concentration (IC50) (commonly the concentration that inhibits the measured activity by half) came out at 32.8 µM in assay [1], 34.8 µM in assay [2], 29.4 µM in assay [3] and 30.1 µM in assay [4].

Turning to `COC[C@H]1O[C@]23Oc4cccc(O)c4[C@](O)(c4c(O)cc(C)c(c42)OC1(C)C)[C@H]3C` [cytorhizin C], the IC50 in assay [1] was determined as 54.7 µM; in assay [2], 36.8 µM; in assay [3], 68.6 µM; in assay [4], 58.6 µM.

In the case of `N.N.[Cl][Pt][Cl]` [顺铂, reference compound], the IC50 in assay [1] was found to be 1.6 µM; in assay [2] it was 3.3 µM; in assay [3], 2.4 µM; in assay [4], 3.2 µM.
